Test results: PMC7990796, “Efficacy of a Combined Antiplatelet Therapy Is Not Affected by a Simultaneous Binding of Cangrelor and PSB 0777 to Albumin” (Frontiers in Pharmacology, 2021)
Where two headings read alike, the source gives them in different places.

Experiments:
HSA = details: 2005, cited from earlier work
[1] = system: platelet function in whole blood; parameters: method as in Boncler et al., 2018; details: ref Boncler et al., 2018; cited from earlier work
human serum albumin [2] = molecular target: T1, human serum albumin (Homo sapiens, UniProt P02768); assay: Fluorescence quenching of HSA (Stern-Volmer, saturation binding, van't Hoff analysis); details: for Number of binding sites n / Kd: mean [95% CI]; for KA: KA = 1/KD; for decrease of HSA fluorescence: 2.5 µM HSA; for ΔH^θ / ΔS^θ: van't Hoff plot, 292, 302, 312 K
T1 sequence (P02768 25-609): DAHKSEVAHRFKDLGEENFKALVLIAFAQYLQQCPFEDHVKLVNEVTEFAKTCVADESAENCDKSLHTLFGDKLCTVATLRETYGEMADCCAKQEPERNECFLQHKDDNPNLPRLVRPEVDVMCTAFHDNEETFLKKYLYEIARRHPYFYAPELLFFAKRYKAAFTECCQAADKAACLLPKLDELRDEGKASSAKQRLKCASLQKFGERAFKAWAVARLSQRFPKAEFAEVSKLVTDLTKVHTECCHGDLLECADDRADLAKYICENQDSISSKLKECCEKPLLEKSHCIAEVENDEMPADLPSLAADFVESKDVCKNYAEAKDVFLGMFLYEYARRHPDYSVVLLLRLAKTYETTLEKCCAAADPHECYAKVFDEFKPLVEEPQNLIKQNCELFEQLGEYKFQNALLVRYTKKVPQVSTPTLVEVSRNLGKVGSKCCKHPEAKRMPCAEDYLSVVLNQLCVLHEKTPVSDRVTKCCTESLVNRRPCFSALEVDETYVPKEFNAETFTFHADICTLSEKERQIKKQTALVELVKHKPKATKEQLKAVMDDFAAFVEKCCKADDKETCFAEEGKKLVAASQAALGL
Experimental: The fluorescence measurements for albumin-drug complexes were performed using a LS50B spectrofluorometer (Perkin Elmer, Waltham, MA, United States) equipped with 1.0 cm quartz cell. […] The slit widths for excitation and emission beams were set to 5 and 10 nm, respectively. The Perkin-Elmer FL WinLab software v. 4.00.03 was used to collect the measured data. An appropriate buffer blank spectrum was subtracted from the measured spectra for fluorescence background correction. […] In consequence, the albumin fluorescence was not corrected for the inner filter effect. All measurements, except a thermodynamic analysis of the binding of antiplatelet compounds to HSA were performed at 25°C after 30 s incubation of a sample with the examined compound. Stock and working solutions of all compounds used in the experiments were prepared in PBS buffer, pH 7.4.
To obtain the binding parameters: dissociation constant (KD) and the number of binding sites per protein molecule (n), the experimental data were fit to a saturation binding curve using nonlinear regression analysis.
The free energy change was estimated from the following relationship Eq. 4: ΔG^θ=ΔH^θ−TΔS^θ (4)

human serum albumin [3] = molecular target: T1, human serum albumin; assay: Synchronous fluorescence spectra of HSA; type: binding; parameters: purchased Sigma (St. Louis, MO, United States); details: 0‒38.5 μM
Experimental: (§1) The fluorescence measurements for albumin-drug complexes were performed using a LS50B spectrofluorometer (Perkin Elmer, Waltham, MA, United States) equipped with 1.0 cm quartz cell. The fluorescence spectra for HSA solution (2.5 µM in 0.1 M phosphate buffer, pH 7.4) were recorded in the range of wavelength from 250 to 500 nm, with the excitation at 280 nm and the emission set at 350 nm. The slit widths for excitation and emission beams were set to 5 and 10 nm, respectively. The Perkin-Elmer FL WinLab software v. 4.00.03 was used to collect the measured data. An appropriate buffer blank spectrum was subtracted from the measured spectra for fluorescence background correction. The optical density of HSA solution was below 0.1 and within the albumin concentration range of 0‐2.5 µM we observed a linear relationship between protein concentration and fluorescence intensity (p < 0.0001, R^2 = 0.995). In consequence, the albumin fluorescence was not corrected for the inner filter effect. All measurements, except a thermodynamic analysis of the binding of antiplatelet compounds to HSA were performed at 25°C after 30 s incubation of a sample with the examined compound. Stock and working solutions of all compounds used in the experiments were prepared in PBS buffer, pH 7.4. The protein concentration was determined by BCA method ([Smith et al., 1985]).
To monitor changes in the polarity around the tyrosine and tryptophan residues of HSA evoked by the examined compounds, the synchronous fluorescence spectra of HSA (Δλ 15 nm and Δλ 60 nm) were recorded in the presence of increasing concentrations of PSB 0777 and cangrelor (0‒38.5 μM with 4 μM intervals).

human serum albumin [4] = molecular target: T1, human serum albumin; assay: Surface plasmon resonance binding to immobilized HSA (Biacore X)
Experimental: Briefly, 100 µg of HSA was dissolved in 1 ml of 10 mM sodium acetate buffer, pH 4.0, and immobilized on the flow cell 1 of the sensor chip surface. No protein was immobilized on the flow cell 2, which was used as a control. […] The curves from three independent experiments were analyzed by global curve fitting of the entire data set using the Langmuir binding model with the BIAevaluation 4.1.1 software (Biacore AG, Uppsala, Sweden).

human serum albumin [5] = molecular target: T1, human serum albumin; assay: Fluorescence quenching of HSA in the presence of a competitor (warfarin or cangrelor); type: binding; parameters: purchased Sigma (St. Louis, MO, United States); details: for Kd: mean [95% CI], n = 5–6
Experimental: as §1
[…]. [Chaves et al., 2018]; [Manjushree and Revanasiddappa, 2019]). […].
Furthermore, to determine whether one antiplatelet compound could be displaced from HSA by the other, the binding site marker experiments were repeated, i.e. by titration of HSA with PSB 0777 (0‒38.5 µM) in the presence of 2.5 µM cangrelor, instead of a marker.

[6] = system: platelets (platelet-rich plasma, isolated platelets); assay: Inhibition of ADP-induced platelet activation (P-selectin/CD62P expression, flow cytometry); type: cell-based, human; details: 17 nM, 10 μM ADP; for decrease of ADP-dependent platelet activation: n = 5; for inhibition at 0.017 µM: Homo sapiens, Platelet, n = 6
Experimental: Human blood was obtained from consecutively recruited healthy volunteers (simple random non-stratified sampling): four men and seven women; mean age 25 ± 5 years. All individuals provided their written informed consent to participate in the study. The exclusion criteria were the same as described previously ([Wzorek et al., 2020]). The study was approved by the Human Studies Committee of the Medical University of Lodz (Poland) and was conducted in accordance with the guidelines established by the Declaration of Helsinki. Whole blood was collected into polypropylene tubes with a blood-to-acid citrate dextrose solution (ACD) ratio of 6:1 (vol:vol).
Human platelet-rich plasma (PRP) was prepared by centrifuging of anticoagulated whole blood at 190 x g for 12 min at 37°C. Platelet-poor plasma (PPP) was prepared by centrifuging the whole blood fraction left after removal of the PRP at 2500 x g for 12 min at 37°C. Platelet count in PRP was measured with automated haematology analyzer Sysmex XS-800i™ (Sysmex, Kobe, Japan) and adjusted to 1 × 10^8 cells per ml.
Suspensions of isolated platelets were obtained from PRP separated from anticoagulated whole blood containing 50 ng/ml PGE1. PRP was centrifuged at 800 x g for 15 min at 37°C to obtain a platelet pellet. Platelet pellet was immediately suspended in the Tyrode buffer (134 mM NaCl, 12 mM NaHCO3, 2.9 mM KCl, 0.34 mM Na2HPO4, 1 mM MgCl2, 10 mM HEPES, 5 mM glucose, pH 7.4) and diluted to a count 1 × 10^8 per ml, as described above.
The effect of plasma or HSA on inhibition of platelet activation by cangrelor was assessed by two-colour flow cytometry with the use of anti-CD61/PerCP (for platelet gating) and anti-CD62/PE (for detection of activated platelets). The antiplatelet activity of cangrelor was evaluated in PRP and suspensions of isolated platelets, when the effect of plasma was examined, or in isolated platelets containing 4% HSA, when the effect of albumin was studied. […] The activated platelets were stained with antibodies prior to fixation as described previously ([Wzorek et al., 2020]). A total of 10,000 events were acquired in each experiment using a FACSCanto II flow cytometer and surface expression of CD62P (P-selectin) in platelets was analysed using FACS/Diva v. 6.0 software (Becton-Dickinson, Franklin Lakes, NJ, United States).

human serum albumin [7] = molecular target: T1, human serum albumin; parameters: purchased Sigma (St. Louis, MO, United States); method as in Boncler et al., 2018; Wzorek et al., 2020; details: SPR; ref Boncler et al., 2018; Wzorek et al., 2020; read-out: affinity of binding to HSA (SPR); cited from earlier work
[8] = concentration range 0–5 μM, 25°C
[9] = highest drug concentration 38.5 µM, n = 3

Row | Number of binding sites n (human serum albumin [2]; 0‒38.5 µM, n = 3) | ΔG^θ (human serum albumin [2]; 292 K) [kcal/mol] | ΔG^θ (human serum albumin [2]; 302 K) [kcal/mol] | KA (human serum albumin [2]; 302 K) | ΔG^θ (human serum albumin [2]; 312 K) [kcal/mol] | KA (human serum albumin [2]; 312 K) | decrease of HSA fluorescence (human serum albumin [2]; [8]) [%] | decrease of HSA fluorescence (human serum albumin [2]; [9]) [%] | ΔH^θ (human serum albumin [2]) [kcal/mol] | ΔS^θ (human serum albumin [2]) [J/mol * K] | mean red shift of emission peak (human serum albumin [3]; Δλ 15 nm (tyrosine)) [nm] | mean red shift of emission peak (human serum albumin [3]; Δλ 60 nm (tryptophan)) [nm] | increase of dissociation constant in the presence of competitor compared to control (human serum albumin [5]; competitor warfarin) [fold] | n with competitor (human serum albumin [5]; competitor warfarin 2.5 µM) | n without competitor (human serum albumin [5]; control of the warfarin series) | Compound | further results
1 | – | – | – | – | – | – | – | – | – | – | – | – | – | – | – | CC(C)Cc1ccc(C(C)C(=O)O)cc1 (centres unmarked) [ibuprofen] | KA (binding constant) reported earlier (HSA; used in the racemic form, ref Dufour and Dangles): 10^5–10^6 M^−1
2 | 0.99 [−0.29 to 2.27] | -6.522 | -6.812 | 10.31 [0.20‒6.97] × 10^4 [M^−1] | -7.101 | 8.47 [0.19‒5.45] × 10^4 [M^−1] | 40 | 75 | 1.93 | 121.01 | 0.3 | 2.1 | 2 | 1.39 [−0.07 to 2.85] | 1.10 [0.67‒1.52] | CSCCNc1nc(SCCC(F)(F)F)nc2c1ncn2[C@@H]1O[C@H](COP(=O)(O)OP(=O)(O)C(Cl)(Cl)P(=O)(O)O)[C@@H](O)[C@H]1O [cangrelor] | IC50 [1]: 0.017 µM; Kd (human serum albumin [2]; 0‒38.5 µM, nonlinear regression, n = 3): 10.9 µM; Kd (human serum albumin [2]; 292 K, n = 3): 14.5 µM; Kd (human serum albumin [2]; 302 K, n = 3): 9.7 µM; Kd (human serum albumin [2]; 312 K, n = 3): 11.8 µM; Kd (human serum albumin [4]; KA (equilibrium association constant), obtained from the binding rate constants): 16.3 µM; koff (human serum albumin [4]; human, pH 7.4): 0.0573 ± 0.000323 s⁻¹; kon (human serum albumin [4]; human, pH 7.4): 2820 ± 1.4e+06 M⁻¹ s⁻¹; Kd (human serum albumin [5]; competitor warfarin 2.5 µM, read-out: KD with competitor): 16.8 µM; Kd (human serum albumin [5]; control of the warfarin series, read-out: KD without competitor): 8.3 µM; decrease of ADP-dependent platelet activation ([6]; isolated platelets (compared with PRP)): 95%; decrease of ADP-dependent platelet activation ([6]; platelet-rich plasma): 77%; inhibition at 0.017 µM ([6]; control isolated platelets without HSA): 97%; inhibition at 0.017 µM ([6]; isolated platelets with 4% HSA): 74%
3 | 0.83 [−0.22 to 1.87] | -6.551 | -6.733 | 6.43 [−5.24 to 1.99] × 10^4 [M^−1] | -6.917 | 7.50 [−0.90 to 3.91] × 10^4 [M^−1] | 25 | 70 | -1.21 | 76.49 | 0.5 | 0.8 | 1.4 | 0.59 [0.19‒0.99] | 0.69 [0.51‒0.88] | Nc1nc(SCCc2ccc(S(=O)(=O)O)cc2)nc2c1ncn2[C@@H]1O[C@H](CO)[C@@H](O)[C@H]1O [PSB 0777] | increase of dissociation constant in the presence of competitor compared to control (human serum albumin [5]; competitor cangrelor): 1.2 fold; n with competitor (human serum albumin [5]; competitor cangrelor 2.5 µM): 0.65 [0.39‒0.92]; n without competitor (human serum albumin [5]; control of the cangrelor series): 0.61 [0.32‒0.89]; Kd (human serum albumin [7]): 80.6 µM
4 | – | – | – | – | – | – | – | – | – | – | – | – | – | – | – | CC(=O)CC(c1ccccc1)c1c(O)c2ccccc2oc1=O (centres unmarked) [warfarin] | KA reported earlier (HSA; ref Yamasaki et al., 1996, Watanabe et al., 2001, Dufour and Dangles): 10^4–10^5 M^−1
